Here are results for one compound from patent US11111317B2, “Cordyceps militaris medium polysaccharide, method for separating and purifying same, and use thereof” (SOUTH CHINA NORMAL UNIVERSITY, priority 2018, dated 2021).

Structures are written as SMILES.

The test has as its system hyperuricemia model mice. Nature of the test: Uric acid lowering ability in hyperuricemia model mice (xanthine + oteracil potassium). In kind it is in vivo. The following applies: positive group 50 mg/kg by gavage, seven days, mouse serum. The procedure: Sixty male mice are randomly divided into six groups after one week's feeding, with 10 mice in each group, including a blank group, a model group, a high P1 dose group (400 mg/kg), a middle P1 dose group (200 mg/kg), a low P1 dose group (100 mg/kg) and a positive drug (50 mg/kg) control group. Every morning, the model group, the positive control group and the high, middle and low P1 dose groups are administered with 600 mg/kg of xanthine (ig) by gavage+100 mg/kg of oteracil potassium (ip) by intraperitoneal injection, fasting but water available for one hour before the model is made, and the blank group is administered with the same dose of normal saline. In the afternoon, the high, middle and low P1 dose groups are administered with the polysaccharide suspension by gavage; the positive control group is administered with 50 mg/kg of allopurinol suspension by gavage; the model group and the blank group are administered with the same volume of normal saline by gavage for seven consecutive days.
On the seventh day, 1 hour after administration in the afternoon, the mice are weighed and decapitated for blood collection. The blood is centrifuged at 3000 r/min for 10 min after being placed at room temperature for 40 min, and the upper layer of the serum is pipetted. Serum uric acid (UA), serum creatinine (CREA) and serum urea nitrogen (BUN) values are measured by kits to investigate the effects of the polysaccharide P1 on UA, CREA and BUN, as well as renal functions in the hyperuricemia model mice.

As for `Oc1ncnc2[nH]ncc12` [Positive, allopurinol], the “BUN (serum urea nitrogen)” value came out at 6.99 ± 1.10 mmol/L, the “CREA (serum creatinine)” value is 71.69 ± 8.43 µmol/L and the “UA (serum uric acid)” value was 108.83 ± 6.53 µmol/L.
